# According to PubChem BioAssay (NCI):
# Values joined by “and” are separate entries in the source; they are usually repeats but may differ in a detail not shown here. Equal entries are not always repeated.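 Following 48 hours of exposure in 96-well plates, responses at five concentrations were used to interpolate endpoints linearly. At the GI50, growth is halved. TGI: total growth inhibition.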
# Assays:
# Test in all cases: DTP human tumour cell line panel, 48 h
# OVCAR-5 ovarian = system: OVCAR-5 ovarian
# SK-OV-3 ovarian = system: SK-OV-3 ovarian
# OVCAR-4 ovarian = system: OVCAR-4 ovarian
# RPMI-8226 leukemia = system: RPMI-8226 leukemia
# MCF7 breast = system: MCF7 breast
# BT-549 breast = system: BT-549 breast
# SNB-75 CNS = system: SNB-75 CNS
# HT29 colon = system: HT29 colon
# ACHN renal = system: ACHN renal
# SF-539 CNS = system: SF-539 CNS
Compound,TGI (OVCAR-5 ovarian),TGI (SK-OV-3 ovarian) [µM],TGI (OVCAR-4 ovarian),TGI (RPMI-8226 leukemia) [µM],TGI (MCF7 breast) [µM],TGI (BT-549 breast),TGI (SNB-75 CNS),TGI (HT29 colon),TGI (ACHN renal) [µM],TGI (SF-539 CNS),GI50 (OVCAR-5 ovarian) [µM],GI50 (SK-OV-3 ovarian) [µM],GI50 (OVCAR-4 ovarian) [µM],GI50 (RPMI-8226 leukemia) [µM],GI50 (MCF7 breast) [µM],GI50 (SNB-75 CNS) [µM],GI50 (SF-539 CNS) [µM],GI50 (HT29 colon) [µM]
CCn1c2ccccc2c2cc(NC(=O)c3c(C)[nH]c(=O)[nH]c3=S)ccc21,68.2 µM,> 100,> 100 µM,> 100,> 100,> 100 µM,> 100 µM,> 100 µM,–,–,–,–,–,–,–,–,–,–
CCCCN=C(OC1C=CCCC1)SC (centres undefined),> 100 µM,> 100,> 100 µM,> 100,> 100,> 100 µM,> 100 µM,> 100 µM,> 100,–,–,–,–,–,–,–,–,–
CCOC(=O)Cn1c(C)nc2nn(Cc3ccccc3)cc2c1=O,> 100 µM,> 100,–,–,> 100,> 100 µM,–,> 100 µM,> 100,> 100 µM,–,–,–,–,–,–,–,–
Cc1cc2nnn(C3CCCO3)c2cc1C (centres undefined),> 100 µM,> 100,–,–,> 100,> 100 µM,> 100 µM,> 100 µM,–,> 100 µM,–,–,–,–,–,–,–,–
O=c1[nH]nc(Cc2ccc([N+](=O)[O-])cc2)[nH]1,> 100 µM,–,> 100 µM,> 100,> 100,> 100 µM,> 100 µM,> 100 µM,> 100,> 100 µM,–,–,–,–,–,–,–,–
Cc1cc(=O)[nH]c(S(=O)(=O)NC(=S)Nc2ccc(Br)cc2)n1,> 100 µM,> 100,> 100 µM,> 100,–,> 100 µM,> 100 µM,> 100 µM,> 100,> 100 µM,–,–,–,–,–,–,–,–
c1csc(-c2csc(-c3cccs3)c2)c1,> 100 µM,> 100,> 100 µM,57.1,75.2,–,> 100 µM,> 100 µM,> 100,> 100 µM,–,–,–,–,–,–,–,–
O.O=[Se](=O)(O)O.[NH-]C1CCCCC1[NH-].[Pt+2] (centres undefined),> 100 µM,> 100,> 100 µM,> 31.6,> 47.1,–,> 83 µM,> 100 µM,–,> 100 µM,26.7,64.8,11.6,1.12,3.49,16.9,25.3,4.62
O=C(c1ccccc1)c1ccc2c(c1)N=C(c1ccc(Cl)c(Cl)c1)CC(c1ccc3ccccc3c1)N2 (centres undefined),> 100 µM,> 100,> 100 µM,> 100,–,–,> 100 µM,> 100 µM,> 100,> 100 µM,–,–,–,–,–,–,–,–
CC(C)(C)OC(=O)N[C@@H](Cc1ccccc1)C(=O)N1CC[C@@H](C(=O)N2[C@H]3CC4CC[C@@]3(CS2(=O)=O)C4(C)C)N1,> 100 µM,> 100,> 100 µM,> 100,–,> 100 µM,> 100 µM,> 100 µM,> 100,–,–,–,–,–,–,–,–,–
Nc1ncc(Cc2nn3c(COc4ccc(Cl)cc4)nnc3s2)s1,> 100 µM,> 100,> 100 µM,> 100,> 100,–,> 100 µM,> 100 µM,14,> 100 µM,–,–,–,–,–,–,–,–
Nc1ncnc2c(C3OC(CO)C(O)C3O)c[nH]c12 (centres undefined),0.657 µM and 0.675 µM,–,0.705 µM and 0.741 µM,–,0.0807,0.237 µM and 0.297 µM,0.0984 µM and 0.459 µM,0.343 µM and 1.21 µM,–,0.0546 µM and 0.0374 µM,< 0.0119,–,–,–,–,–,< 0.0117,–
COc1cccc2c1C(=O)c1c(O)c3c(c(O)c1C2=O)C[C@](O)(C(=O)CO)CC3OC1CC(N)C(OC2CCCCO2)C(C)O1 (some centres undefined),2.17 µM,8.28,4.2 µM,5.12,12.1,–,1.18 µM,4.52 µM,–,1.41 µM,–,–,–,–,–,–,–,–
CC(C)=CCC/C(C)=C/CCC1(C)C2COC(=O)C21 (centres undefined),> 100 µM,> 100,> 100 µM,–,> 100,> 100 µM,–,> 100 µM,> 100,–,–,–,–,–,–,–,–,–
Cn1c(=O)c2[nH]cnc2n(C)c1=O,> 100 µM,–,–,> 100,> 100,–,–,–,> 100,–,–,–,–,–,–,–,–,–
Cc1cn(C2CC(O)C(Cn3cc(Cn4nc(Br)c(=O)[nH]c4=O)nn3)O2)c(=O)[nH]c1=O (centres undefined),> 100 µM,> 100,> 100 µM,> 100,> 100,> 100 µM,> 100 µM,–,> 100,> 100 µM,–,–,–,–,–,–,–,–
COc1cccc(C2c3cc4c(cc3OC(N3CCOCC3)C2C)OCO4)c1 (centres undefined),71.4 µM,> 100,61 µM,> 100,46.4,22.4 µM,> 100 µM,25 µM,> 100,–,–,–,–,–,–,–,–,–
COc1cc(/C=C2\N=C(c3ccccc3)N(c3ccc(C(=O)c4ccccc4)cc3N3C(=O)/C(=C/c4cc(OC)c(OC)c(OC)c4)N=C3c3ccccc3)C2=O)cc(OC)c1OC,> 100 µM,55.4,> 100 µM,> 100,42.1,66.4 µM,35.6 µM,92 µM,66,–,–,–,–,–,–,–,–,–
COC(=O)C1CC(C=O)=C(SC)N1 (centres undefined),> 50 µM,> 50,> 50 µM,> 50,> 50,> 50 µM,> 50 µM,> 50 µM,> 50,–,–,–,–,–,–,–,–,–
CC[N+]1(C)CCC(O)(/C=C/c2ccc(Cl)c(Cl)c2)C(C(=O)/C=C/c2ccc(Cl)c(Cl)c2)C1 (centres undefined),7.13 µM,16.5,–,5.7,6.52,7.44 µM,12.2 µM,4.53 µM,4.15,9.13 µM,–,–,–,–,–,–,–,–
C=CC(=O)N1C/C(=C\c2ccc(F)cc2)C(=O)/C(=C/c2ccc(F)cc2)C1,2.7 µM,2.38,1.85 µM,–,1.42,1.2 µM,1.94 µM,0.285 µM,0.715,0.653 µM,–,–,–,–,–,–,–,–
O=c1oc2ccccc2cc1-c1nc2ccccc2s1,65.3 µM,23.7,29 µM,> 85,6.53,46.4 µM,17.4 µM,25.8 µM,> 20.1,–,–,–,–,–,–,–,–,–
CNc1ccc([N+](=O)[O-])cc1C(=O)N1CCC[C@H]1CO,> 100 µM,> 100,> 100 µM,> 100,> 100,> 100 µM,> 100 µM,> 100 µM,> 100,–,–,–,–,–,–,–,–,–
